Data set [1] relates to E. coli (BL21;DE3). The experiment in a line: E. coli viability assay (LIVE/DEAD fluorescence imaging). It counts as cell-based. The note with it: peptide 125 μM; LIVE/DEAD staining, M9 medium, confocal imaging, cell counts with ImageJ; mean ± SE, n = 3. As for the experimental part:
E. coli (BL21;DE3) were dyed using the L7007 LIVE/DEAD Bacterial Viability kit (Molecular Probes, Eugene OR, USA); microbes were grown in M9 medium. Images were acquired on a Leica SP8 confocal microscope, running LASX acquisition software. The magnification consisted of a 63 X 1.4 NA objective. Microbes were counted using ImageJ software. Error calculations were based on three repetitions, with each experiment scanned at nine different tiles—all together, 27 repetitions.
Live/dead fluorescence cell imaging experiments were used to indicate bacterial viability when incubated with the peptides. This method also helped to determine whether the decrease in the growth rate described above resulted from deceleration in E. coli growth or its substantial death. E coli were grown to the late […] phase (according to the growth rate lines; Figs B to D in S1 File) in the presence of the peptides in poor medium (M9), which mostly resembles physiological conditions.[52–54] Glucose levels in the growth media were sufficient to prevent bacterial viability loss due to lack of nutrition, yet not too high to positively affect its viability. […] However, the effect of the peptides was not as substantial as the commercially available antibiotic kanamycin. […] 5 ± 4.3% and up to 45.3 ± 4.3% reduction at a concentration of 125 μM.
Fig 4 Effect of the test peptides on E. coli viability. […]

The subject of data set [2] is E. coli (BL21;DE3). The experiment in a line: E. coli growth rate experiment (O.D. 600 nm) under copper stress. Type of data set: cell-based. Particulars: M9 medium, 37 °C, value after 14 h incubation, 5 μM Cu(II) chloride in assay (sentence does not say with or without Cu(II)), mean ± SE, n = 5. The method, then: E. coli (BL21;DE3) growth rates were evaluated in 96-well microplates: in 200 μl of a poor medium comprising M9 medium. Incubation was for 16 h at 37°C with Copper(II) chloride (Sigma-Aldrich, St. Louis, MO, USA) at a concentration of 5 μM. Absorbance at 600 nm was measured every 30 min after stirring for 5 s in a 96-well plate reader (SPL Life Sciences, Gyeonggi, Korea). The buffer background was auto-subtracted. Each experiment was repeated five times under identical conditions.
Next, E. coli were grown in M9 medium for 16 h, and their growth rate was evaluated in the absence and presence of Cu(II) in the medium. In each sample, a different peptide was introduced to the medium, with the kanamycin as a positive control. […] Growth rate values for all peptides at various concentrations after 14 h of incubation are presented in Fig 3 (the growth rate curves are presented in Figs E to F in S1 File).
Fig 3 Effect of test peptides on the E. coli growth rate. E. coli cultures were grown as described in Methods. The growth rate values after a 14 h incubation in the medium in the presence (gray lines) and absence (black lines) of Cu(II). Concentrations of the test peptides: A. 50 μM, B. 75 μM, C. 100 μM, and D. 125 μM. *p < 0.05, MEAN ± SE, n = 5, a comparison between the values in the presence and absence of Cu(II). #p < 0.05, MEAN ± SE, n = 5, in the presence of Cu(II) and comparing between values of a buffer and peptide. t-test was used for the statistic evaluation.

The next data set relates to E. coli (BL21). The experiment in a line: Kirby-Bauer test (disc diffusion). It counts as cell-based. Particulars: 2 mm radius discs, LB petri dishes, 37 °C overnight. (In agar diffusion tests the substance spreads into inoculated agar from a disc or well.)
Data set [3] is classed as physicochemical. Particulars: chemical stability; peptides diluted to 150 mM solution in double-distilled water, incubated at 37 °C for 24 h; ESI-MS spectra before and after incubation. The source says: We hypothesized that peptides would penetrate into E. coli and bind to CusB, interfere with its physiological dimerization, and thereby induce non-physiological structural changes or inhibit physiological structural changes in the transporter in response to extended levels of Cu(I). Thus, E. coli will lose its ability to be protected by copper-mediated oxidative stress, resulting in the death of the bacteria. Unlike CusB, CueO has homologs in human cells (Superoxide dismutase, SOD), and the main role in this study is to affect the CusCFBA efflux system regardless to CueO function, all measurements were carried out with an active CueO. First, we verified whether all ten peptides were stable under physiological conditions via incubation at 37°C for 24 h by ESI-MS analysis (Figs B to D in S1 File). Peptides 2–10 were stable under these given conditions, whereas peptide 1 was unstable.
Validation of the peptides stability using ESI-MS
In order to confirm the stability of the peptides, them were diluted to 150 mM solution in double-distilled
water, then incubated at 37 °C for 24 hr.
S2 before the incubation (Figure S2A) and after the incubation (Figure S2B). All peptides besides pep1
Fig B: ESI-MS. ESI-MS spectra for pep1 and pep2, left panel presents the spectra after peptide
(1 picture or pasted object on this page, not shown here)

The mark [4] stands for this setting: disc solution 50 µM in 0.85% NaCl.
Where [5] appears, read: disc solution 75 µM in 0.85% NaCl.
Where [6] appears, read: disc solution 100 µM in 0.85% NaCl.
Setting [7] is: disc solution 125 µM in 0.85% NaCl.

Regarding IQGMD [pep5], the “reduction of bacterial viability” value in the data set with E. coli (BL21;DE3) [1] is 45.3 ± 4.3%. Besides, the figures for the “decrease in O.D. (600 nm)” value in the data set with E. coli (BL21;DE3) [2] (peptide 50 μM) and with E. coli (BL21;DE3) [2] (peptide 100 μM) were 54.5 ± 4.2% and 77.2 ± 6.4%, respectively. In addition, the “r, radius of bacteria killing formed over petri dishes by peptide-solution discs” value in the data set with E. coli (BL21) (setting [4]) is listed as 0 mm; in the data set with E. coli (BL21) (setting [5]), 0.5 mm; in the data set with E. coli (BL21) (setting [6]) it was 1 mm; with E. coli (BL21) (setting [7]), 2 mm.
For PVWV [pep10], the “r, radius of bacteria killing formed over petri dishes by peptide-solution discs” value came out at 0 mm in the data set on E. coli (BL21) (setting [4]), 0 mm with E. coli (BL21) (setting [5]), 0.5 mm with E. coli (BL21) (setting [6]) and 1.5 mm in the data set on E. coli (BL21) (setting [7]).
For “AKIQGMDPVWVTA [pep1, 13-amino acid parent peptide […] mimicking CusB residues 236-248]”, in data set [3], the “stability under physiological conditions (ESI-MS)” value is reported as “unstable”.
For the molecule `NC[C@H]1O[C@H](O[C@H]2[C@H](O)[C@@H](O[C@H]3O[C@H](CO)[C@@H](O)[C@H](N)[C@H]3O)[C@H](N)C[C@@H]2N)[C@H](O)[C@@H](O)[C@@H]1O` [Kanamycin, kanamycin, reference compound], the “r, radius of bacteria killing formed over petri dishes by peptide-solution discs” value in the data set on E. coli (BL21) (setting [4]), in the data set with E. coli (BL21) (setting [5]), in the data set with E. coli (BL21) (setting [6]) and with E. coli (BL21) (setting [7]) was 2.5 mm each time.
Take MDPV [pep9]: the “r, radius of bacteria killing formed over petri dishes by peptide-solution discs” value with E. coli (BL21) (setting [4]) was 0 mm; in the data set on E. coli (BL21) (setting [5]), 0.5 mm; with E. coli (BL21) (setting [6]) it was 0.5 mm; with E. coli (BL21) (setting [7]), 1.5 mm.
Regarding GMDPVW [pep6], the “r, radius of bacteria killing formed over petri dishes by peptide-solution discs” value in the data set on E. coli (BL21) (setting [4]), in the data set with E. coli (BL21) (setting [5]), with E. coli (BL21) (setting [6]) and in the data set on E. coli (BL21) (setting [7]) was 0 mm throughout.
In the case of KIQGMDPVWVT [pep2], the “r, radius of bacteria killing formed over petri dishes by peptide-solution discs” value with E. coli (BL21) (setting [4]), with E. coli (BL21) (setting [5]), with E. coli (BL21) (setting [6]) and in the data set on E. coli (BL21) (setting [7]) was 0 mm each time.
Take VWVTA [pep7]: the “r, radius of bacteria killing formed over petri dishes by peptide-solution discs” value in the data set on E. coli (BL21) (setting [4]), in the data set on E. coli (BL21) (setting [5]), in the data set with E. coli (BL21) (setting [6]) and in the data set on E. coli (BL21) (setting [7]) was 0 mm throughout.
For DPVWVTA [pep4], the “r, radius of bacteria killing formed over petri dishes by peptide-solution discs” value in the data set on E. coli (BL21) (setting [4]), in the data set on E. coli (BL21) (setting [5]), with E. coli (BL21) (setting [6]) and with E. coli (BL21) (setting [7]) was 0 mm in each case.
In the case of AKIQGM [pep3], the “r, radius of bacteria killing formed over petri dishes by peptide-solution discs” value in the data set with E. coli (BL21) (setting [4]), with E. coli (BL21) (setting [5]), in the data set on E. coli (BL21) (setting [6]) and in the data set on E. coli (BL21) (setting [7]) was 0 mm throughout.

These data come from publication PMC6936879, “Inhibiting the copper efflux system in microbes as a novel approach for developing antibiotics” (PLoS ONE, 2019).
